Here are results for two compounds from patent US20250295658A1, “ANTIPARASITIC AGENTS AND METHODS” (Whitehead Institute for Biomedical Research, priority 2022, published 2025).

The test system of data set [1] is Toxoplasma gondii. As to the kind of experiment: Plaque assays with DAHP and BH4. It is filed as cell-based. Conditions: FIG. 1F. How it is done: Plaque Assays with DAHP and BH4
RHAku80 were maintained for at least two passages in DMEM and HPLM prior to beginning the plaque assay. Confluent human fibroblasts were maintained in 6-well plates in either DMEM or HPLM for at least 24 h prior to the start of the assay. To begin the experiment, parasites maintained in DMEM and HPLM were syringe released and filtered through a […]. Parasites were then counted and diluted such that each well received 500 parasites. Wells were then treated with the indicated concentrations of DAHP or PBS vehicle. For the BH4 rescue experiments, wells received 50 μM BH4 or the equivalent volume of DMSO vehicle. Plaques were allowed to grow for 6 days prior to fixation. For fixation, wells were first washed with PBS, then fixed for 10 min at room temperature with 100% ethanol. Wells were then stained for 10 min with crystal violet (12.5 g crystal violet, 125 ml 100% ethanol, 500 ml 1% ammonium oxalate). Wells were then washed three times with water and allowed to dry overnight.

The subject of data set [2] is Toxoplasma gondii. Kind of data set: Pyrimethamine/DAHP drug synergy lytic assays. Format: cell-based. Conditions: pyrimethamine in combination with 2.5 mM DAHP; FIGS. 1G-H. As for the experimental part: Pyrimethamine/DAHP Drug Synergy Lytic Assays
96 well plates were utilized to generate 8-point dosage curves of parasites grown in various concentrations of pyrimethamine with and without 2.5 mM DAHP. At the start of the assay, prior to parasite harvest, 96 well plates containing confluent fibroblasts were set up with 1.33× the desired final drug concentrations in 150 μl of volume. This ensured that the addition of 50 μl of parasites would result in the desired 1× drug concentration of both pyrimethamine and DAHP. Wells designated as containing less than the maximum dosage of either drug (10 μg/ml pyrimethamine and 2.5 mM DAHP) received the equivalent volume of vehicle (ethanol for pyrimethamine, PBS for DAHP). Parasites were then force-lysed, filtered, and resuspended to a concentration of 5e5 parasites/ml. 50 μl of parasites were then added to each well, resulting in an infection of 2.5e4 parasites per well. Plates were then spun at 290 g for 5 min. Plates were then incubated for 3 days to allow for parasite plaquing. Plates were then washed with PBS followed by staining with crystal violet as conducted for plaque assays. Well staining was then quantified by plate reader at the 570 nm wavelength. […] Drug curves were then generated and IC50 values were calculated from biological triplicate experiments in GraphPad Prism 9.

Data set [3] concerns NF54 P. falciparum. As to the kind of experiment: SYBR Green I-based dose-response assay in Plasmodium falciparum. Format: cell-based. To be noted: atovaquone with 1 mM DAHP, FIGS. 2C-D. How it is done: The NF54 P. falciparum line was cultured and synchronized as described previously.^28,29 Cultures were kept at 37° C. in RPMI-1640 medium supplemented with 25 mM HEPES, 100 μM hypoxanthine, 0.5% Albumax II, 24 mM sodium bicarbonate, 25 μg/mL gentamicin (Life Technologies, Carlsbad, CA 11021-045) and gassed with 5% CO2, 1% O2, and 94% N2 mixture. Dose-Response Assay in Plasmodium falciparum A SYBR Green I-based assay was used to measure in vitro P. falciparum drug susceptibility.^30,31 Ring-stage NF54 parasites were seeded at 1% hematocrit and 1% starting parasitemia in 384-well black clear-bottom plates containing test compounds (stocks of 10 mM pyrimethamine, 0.1 mM atovaquone, and 10 mM DHA in DMSO) plated in triplicate in 12-point serial dilutions for 72 h. […] Lysis buffer (0.16% w/v saponin, 1.6% Triton X-100, 5 mM EDTA, and 20 mM Tris-HCl, pH 7.4) with a 1:1000 dilution of SYBR Green I fluorescent dye (Invitrogen) was added for at least 12 h, and fluorescence readings were taken (excitation at 494 nm, emission at 530 nm) using a SpectraMax M5 (Molecular Devices, Sunnyvale, CA) plate reader. IC50 values were calculated using a nonlinear regression curve fit in Graphpad Prism 9 in biological triplicate.

Data set [4] deals with C57BL/6J mouse embryonic fibroblasts. As to the kind of experiment: Proliferation of mouse embryonic fibroblasts in DAHP treatment. To be noted: 5 mM DAHP, 48 hours; FIG. 2E. Format: cell-based. As for the experimental part:
Proliferation of Mouse Embryonic Fibroblasts in DAHP Treatment Twenty-thousand immortalized C57BL/6J mouse embryonic fibroblasts were plated in a well of a 6-well plate and treated with 5 mM DAHP or PBS vehicle. The cells were allowed to grow for 48 hours, then trypsinized and counted. Population doublings were calculated as follows: [formula] [formula]

For data set [5] the following is noted: cited from earlier work.
The test system of data set [6] is DD-BFD2, CST10-fLuc, pSAG1-nLuc reporter strain. Kind of data set: Firefly and nano-luciferase assays of the DD-BFD2, CST10-fLuc, pSAG1-nLuc reporter strain. Conditions: 3 μM shield-1. It is filed as cell-based, Toxoplasma. An excerpt:
This strain is able to recapitulate the biology of both the acute tachyzoite stage as well as the chronic bradyzoite stage. Differentiation from the tachyzoite to bradyzoite stage is mediated through the expression of Bradyzoite Formation Deficient 2 (BFD2) tagged with a degradation domain. Under standard conditions, the degradation domain ensures BFD2 is degraded from parasites, maintaining them in the tachyzoite stage. Upon the addition of the small-molecule shield-1, BFD2 is stabilized and causes differentiation of parasites to the bradyzoite stage.^34 The engineered parasite strain allows the use of a dual-luciferase system to report on differentiation status and general parasite viability. Expression of firefly luciferase is driven by fusion via t2a peptide to the bradyzoite marker CST10, whereas expression of nano-luciferase is driven by the tachyzoite promoter SAG1. Addition of shield-1 is able to simultaneously increase the CST10 bradyzoite marker while decreasing the SAGI tachyzoite marker (FIGS. 2G-H). […] This enables examination of the chronic parasite state with minimal interference on the endogenous circuity. Chemical screens of this engineered strain can therefore identify compounds that bias parasite state either to the tachyzoite or bradyzoite stage, as well as compounds capable of killing both stages simultaneously. […]

As for `Nc1cc(O)nc(N)n1` [DAHP, 2,4-diamino-6-hydroxypyrimidine], the “effect on parasite viability (plaque assay)” value in data set [1] (2.5 mM DAHP) is recorded as “no apparent effect”. Besides, the “parasite lytic cycle (plaque assay)” value in data set [1] (5 mM DAHP) is “able to block the parasite lytic cycle”. Besides, the “antiparasitic effect of DAHP with exogenous BH4” value in data set [1] (exogenous BH4 (50 μM)) was “rescued”. The “reduction in the pyrimethamine IC50 value” in data set [2] was found to be 70%. In data set [3], the “potentiating effect in combination with atovaquone” value is on record as “no potentiating effect”. Moreover, in data set [4], the “growth of a proliferative mouse fibroblast cell line (population doublings)” value is “no effect”. For the same compound, the solubility result in data set [5] is “poor”.
In the case of `CC[C@H](C(=O)N1CCCC[C@H]1C(=O)O[C@H](CCc1ccc(OC)c(OC)c1)c1cccc(OCCN2CCOCC2)c1)c1cc(OC)c(OC)c(OC)c1` [shield-1], in data set [6] (FIG. 2G), the “CST10 bradyzoite marker (firefly luciferase reporter)” value is given as “increase”. Moreover, in data set [6] (FIG. 2H), the “SAG1 tachyzoite marker (nano-luciferase reporter)” value is “decreasing”.
